Data as given in patent US10597388B2, “Pyridazinone herbicides” (FMC CORPORATION, priority 2014, dated 2020).

Experiments:
Assay type in all cases: in vivo
[1] = test system: kochia (Kochia scoparia); assay: Test C greenhouse herbicide test, postemergence
Procedure, shortened: (§1)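 Ratings are visual scores from 0 (no effect) to 100 (complete control), made against controls 13–15 d after treatment. Postemergence sprays were applied in the greenhouse to plants 2–18 cm tall (1- to 4-leaf stage) in peat-moss/vermiculite potting medium.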

[2] = test system: oat, wild (wild oat, Avena fatua); assay: Test C greenhouse herbicide test, postemergence
Procedure, shortened: as §1

[3] = test system: oilseed rape (Brassica napus); assay: Test C greenhouse herbicide test, pre- and postemergence
Procedure, shortened: (§2)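 Each species was treated both before emergence, in a loam–sand soil mix, and after emergence, as 1- to 4-leaf seedlings in peat-based potting medium. Plants stayed in the greenhouse 13 to 15 d, then were scored from 0 (no effect) to 100 (complete control) relative to controls.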

[4] = test system: corn (Zea mays); assay: as above
Procedure, shortened: as §2

[5] = test system: pigweed (Amaranthus retroflexus); assay: as above
Procedure, shortened: as §2

[6] = test system: velvetleaf (Abutilon theophrasti); assay: as above
Procedure, shortened: as §2

[7] = test system: waterhemp (common waterhemp, Amaranthus rudis); assay: as above
Procedure, shortened: as §2

[8] = test system: crabgrass, large (large crabgrass, Digitaria sanguinalis); assay: as above
Procedure, shortened: as §2

[9] = test system: lambsquarters (Chenopodium album); assay: as above
Procedure, shortened: as §2

[10] = test system: ryegrass, Italian (Italian ryegrass, Lolium multiflorum); assay: as above
Procedure, shortened: as §2

[11] = test system: blackgrass (Alopecurus myosuroides); assay: as above
Procedure, shortened: as §2

[12] = test system: ragweed (common ragweed, Ambrosia elatior); assay: as above
Procedure, shortened: as §2

[13] = test system: soybean (Glycine max); assay: as above
Procedure, shortened: as §2

[14] = test system: foxtail, giant (giant foxtail, Setaria faberii); assay: as above
Procedure, shortened: as §2

[15] = test system: morningglory (Ipomoea coccinea); assay: as above
Procedure, shortened: as §2

[16] = test system: johnsongrass (Sorghum halepense); assay: as above
Procedure, shortened: as §2

[17] = Postemergence, 31 g ai/ha, scale 0 to 100 (0 no effect, 100 complete control)
[18] = Postemergence, 62 g ai/ha, 0 to 100 scale (0 no effect, 100 complete control)
[19] = Postemergence, 250 g ai/ha, scale 0 to 100, 0 no effect, 100 complete control, 13 to 15 d
[20] = postemergence, 125 g ai/ha, scale 0 to 100, 0 no effect, 100 complete control
[21] = Preemergence, 31 g ai/ha, scale 0 to 100, 0 is no effect, 100 is complete control
[22] = Preemergence, 62 g ai/ha, scale 0 to 100, 0 is no effect, 100 is complete control
[23] = Preemergence, 125 g ai/ha, scale 0 to 100, 0 is no effect, 100 is complete control
[24] = Preemergence, 250 g ai/ha, scale 0 to 100 (0 no effect, 100 complete control)

CC(=O)Oc1c(Br)nn(C)c(=O)c1-c1c(C)ccc2ccccc12 [Compound 129]
Plant response rating, Kochia [1, 17]: 50 | Kochia plant response rating [1, 18]: 60 | Plant response rating, Kochia [1, 19]: 95 | Kochia plant response rating [1, 20]: 90 | Plant response rating, Oat, Wild [2, 17]: 85 | Oat, Wild plant response rating [2, 18]: 90 | Plant response rating, Oat, Wild [2, 19]: 98 | Oat, Wild plant response rating [2, 20]: 100 | Plant response rating, Oilseed Rape [3, 17]: 0 | Oilseed Rape plant response rating [3, 18]: 0 | Plant response rating, Oilseed Rape [3, 19]: 5 | Plant response rating, Oilseed Rape [3, 21]: 5 | Plant response rating, Oilseed Rape [3, 22]: 50 | Plant response rating, Oilseed Rape [3, 23]: 90 | Oilseed Rape plant response rating [3, 24]: 90 | Oilseed Rape plant response rating [3, 20]: 5 | Plant response rating, Corn [4, 17]: 0 | Corn plant response rating [4, 18]: 20 | Plant response rating, Corn [4, 19]: 30 | Plant response rating, Corn [4, 21]: 0 | Plant response rating, Corn [4, 22]: 5 | Plant response rating, Corn [4, 23]: 15 | Corn plant response rating [4, 24]: 40 | Corn plant response rating [4, 20]: 30 | Plant response rating, Pigweed [5, 17]: 95 | Pigweed plant response rating [5, 18]: 95 | Plant response rating, Pigweed [5, 19]: 98 | Plant response rating, Pigweed [5, 21]: 100 | Plant response rating, Pigweed [5, 22]: 98 | Plant response rating, Pigweed [5, 23]: 98 | Pigweed plant response rating [5, 24]: 100 | Pigweed plant response rating [5, 20]: 98 | Plant response rating, Velvetleaf [6, 17]: 85 | Velvetleaf plant response rating [6, 18]: 95 | Plant response rating, Velvetleaf [6, 19]: 100 | Plant response rating, Velvetleaf [6, 21]: 70 | Plant response rating, Velvetleaf [6, 22]: 85 | Plant response rating, Velvetleaf [6, 23]: 98 | Velvetleaf plant response rating [6, 24]: 98 | Velvetleaf plant response rating [6, 20]: 95 | Plant response rating, Waterhemp [7, 17]: 75 | Waterhemp plant response rating [7, 18]: 70 | Plant response rating, Waterhemp [7, 19]: 98 | Plant response rating, Waterhemp [7, 21]: 90 | Plant response rating, Waterhemp [7, 22]: 95 | Plant response rating, Waterhemp [7, 23]: 100 | Waterhemp plant response rating [7, 24]: 100 | Waterhemp plant response rating [7, 20]: 85 | Plant response rating, Crabgrass, Large [8, 17]: 20 | Crabgrass, Large plant response rating [8, 18]: 30 | Plant response rating, Crabgrass, Large [8, 19]: 60 | Plant response rating, Crabgrass, Large [8, 21]: 5 | Plant response rating, Crabgrass, Large [8, 22]: 25 | Plant response rating, Crabgrass, Large [8, 23]: 75 | Crabgrass, Large plant response rating [8, 24]: 85 | Crabgrass, Large plant response rating [8, 20]: 35 | Plant response rating, Lambsquarters [9, 17]: 95 | Lambsquarters plant response rating [9, 18]: 95 | Plant response rating, Lambsquarters [9, 19]: 98 | Plant response rating, Lambsquarters [9, 21]: 85 | Plant response rating, Lambsquarters [9, 22]: 80 | Plant response rating, Lambsquarters [9, 23]: 85 | Lambsquarters plant response rating [9, 24]: 90 | Lambsquarters plant response rating [9, 20]: 95 | Plant response rating, Ryegrass, Italian [10, 17]: 70 | Ryegrass, Italian plant response rating [10, 18]: 90 | Plant response rating, Ryegrass, Italian [10, 19]: 95 | Plant response rating, Ryegrass, Italian [10, 21]: 90 | Plant response rating, Ryegrass, Italian [10, 22]: 90 | Plant response rating, Ryegrass, Italian [10, 23]: 95 | Ryegrass, Italian plant response rating [10, 24]: 95 | Ryegrass, Italian plant response rating [10, 20]: 95 | Plant response rating, Blackgrass [11, 17]: 35 | Blackgrass plant response rating [11, 18]: 40 | Plant response rating, Blackgrass [11, 19]: 80 | Plant response rating, Blackgrass [11, 21]: 5 | Plant response rating, Blackgrass [11, 22]: 30 | Plant response rating, Blackgrass [11, 23]: 70 | Blackgrass plant response rating [11, 24]: 80 | Blackgrass plant response rating [11, 20]: 60 | Plant response rating, Ragweed [12, 17]: 90 | Ragweed plant response rating [12, 18]: 90 | Plant response rating, Ragweed [12, 19]: 95 | Plant response rating, Ragweed [12, 21]: 70 | Plant response rating, Ragweed [12, 22]: 85 | Plant response rating, Ragweed [12, 23]: 95 | Ragweed plant response rating [12, 24]: 95 | Ragweed plant response rating [12, 20]: 95 | Plant response rating, Soybean [13, 17]: 0 | Soybean plant response rating [13, 18]: 10 | Plant response rating, Soybean [13, 19]: 25 | Plant response rating, Soybean [13, 21]: 0 | Plant response rating, Soybean [13, 22]: 0 | Plant response rating, Soybean [13, 23]: 5 | Soybean plant response rating [13, 24]: 20 | Soybean plant response rating [13, 20]: 20 | Plant response rating, Foxtail, Giant [14, 17]: 60 | Foxtail, Giant plant response rating [14, 18]: 75 | Plant response rating, Foxtail, Giant [14, 19]: 95 | Plant response rating, Foxtail, Giant [14, 21]: 85 | Plant response rating, Foxtail, Giant [14, 22]: 90 | Plant response rating, Foxtail, Giant [14, 23]: 95 | Foxtail, Giant plant response rating [14, 24]: 98 | Foxtail, Giant plant response rating [14, 20]: 85 | Plant response rating, Morningglory [15, 17]: 98 | Morningglory plant response rating [15, 18]: 100 | Plant response rating, Morningglory [15, 19]: 100 | Plant response rating, Morningglory [15, 21]: 85 | Plant response rating, Morningglory [15, 22]: 90 | Plant response rating, Morningglory [15, 23]: 90 | Morningglory plant response rating [15, 24]: 98 | Morningglory plant response rating [15, 20]: 100 | Plant response rating, Johnsongrass [16, 17]: 10 | Johnsongrass plant response rating [16, 18]: 15 | Plant response rating, Johnsongrass [16, 19]: 25 | Plant response rating, Johnsongrass [16, 21]: 5 | Plant response rating, Johnsongrass [16, 22]: 5 | Plant response rating, Johnsongrass [16, 23]: 10 | Johnsongrass plant response rating [16, 24]: 25 | Johnsongrass plant response rating [16, 20]: 15
